Measurements published in patent publication US7838207B2, “Surrogate cell-based system and method for assaying the activity of hepatitis C virus NS3 protease” (Boehringer Ingelheim Canada Ltd., priority 1999, dated 2010).

Test system: tetracycline transactivator (tTA)
Assay: Tetracycline internal control: luciferase assay in 293 cells co-transfected with chimera G and pUHC13-3 reporter
Assay type: cell-based
Details: in the presence of tetracycline (over 2,000,000 cps in its absence)
Excerpt: Expression of the luciferase reporter gene is controlled by NS3 processing of a tetracycline responsive transcriptional trans-activator. Luciferase assay performed on extracts of 293 cells co-transfected with construct G or H, or the positive control tTA-producing plasmid (pUHD15-1), and the pUHC13-3 plasmid containing the luciferase reporter. Closed and open bars indicate the absence and presence of tetracycline, respectively. Note that construct G produces a tetracycline controlled signal; inactivation of the NS3 protease activity (in construct H) abolishes this signal.
The three families (clones A, D, and G) of HCV-tTA chimeras, and their active site and cleavage site mutant variants, were each co-transfected with the pUHC13-3 reporter into 293 cells to determine the extent of NS3-dependent luciferase expression (FIG. 6). Cells in 35 mm wells were co-transfected with each of the constructs described in FIGS. 2A to 2I and the pUHC13-3 reporter plasmid using the calcium phosphate method. The cells were harvested 48 hours post-transfection and washed twice in phosphate buffered saline. […] An aliquot of 10 μl of supernatant was mixed with 50 μl of the luciferase assay reagent (Promega) in a 96 well plate and the amount of light produced measured using a Digene luminometer or Packard top-count scintillation counter. […]

Question: For `CN(C)[C@@H]1C(O)=C(C(N)=O)C(=O)[C@@]2(O)C(O)=C3C(=O)c4c(O)cccc4[C@@](C)(O)[C@H]3C[C@@H]12` [tetracycline], which Luciferase activity is on record?
Answer: 40000 cps
